One series has as its system Daphnia magna. As to conditions: chronic/long-term; duration: 21 days.
For the next series, the system named is Oncorhynchus mykiss. As to conditions: for LC50: acute, duration: 96 hours, mortality; for NOEC: chronic/long-term.
The subject of the next series is Rattus norvegicus. The following applies: for LD50: acute; for NOAEL: reproduction developmental.
A further series has as its system Tagia sp. The following applies: for LC50: acute, mortality.
In a further series the test system is Anas platyrhynchos. As to conditions: reproductive.
Another series relates to Apis mellifera. As to conditions: acute, mortality.
In a further series the test system is Colinus virginianus. As to conditions: acute, oral.
The next series concerns Folsomia candida. As to conditions: chronic/long-term.
For the next series, the system named is Typhlodromus pyri. The series is described as follows: LR50; higher = less toxic. The following applies: acute; duration: 14 days; mortality.

Broadly, the NOAEL is the highest tested level that showed no adverse finding.

Where “and” joins values, the source holds several entries; their conditions need not be identical. Equal values may be shown once.

As to `O=c1cc(Cl)[nH]nc1-c1ccccc1` [Pyridafol], the NOEC with Daphnia magna was 5 mg/L; in the series on Oncorhynchus mykiss (duration: 21 days) it was over 17 mg/L; in the series on Oncorhynchus mykiss (duration: 69 days, other), 0.1 mg/L; with Tagia sp. (chronic/long-term) it was 3.25 mg/kg. The values for the LC50 with Oncorhynchus mykiss and with Tagia sp. were over 16.2 µg/mL and 348 mg/kg, respectively. This compound also showed an LD50 in the series with Rattus norvegicus (F) of 1420 mg/kg.
For the compound `CCCCCCCCSC(=O)Oc1cc(Cl)nnc1-c1ccccc1` [Pyridate], the NOAEL with Anas platyrhynchos is 100 mg/kg; in the series with Rattus norvegicus it was 18.8 mg/kg-day; in the series with Rattus norvegicus (body weight), 165 mg/kg-day; with Rattus norvegicus (organ weight), 3.6 mg/kg-day. For the same compound, the LD50 with Apis mellifera (dermal) was over 100 µg/piece; in the series on Apis mellifera (oral, unspecified), over 110 µg/piece; with Colinus virginianus, 1270 mg/kg; with Rattus norvegicus (oral, mortality) it was over 2000 mg/kg. For the same compound, the LC50 is over 1250 mg/kg in the series on Colinus virginianus (diet); > 1.01 µg/mL and 1.19 µg/mL in the series on Oncorhynchus mykiss; 400 mg/kg in the series with Tagia sp.. In the series with Folsomia candida, this compound showed an NOEC of 112 mg/kg. The compound further displayed an LR50 in the series on Typhlodromus pyri of over 1360 g/ha.

For the origin of these results see EPA's ToxValDB 9.5 (doi:10.2903/j.efsa.2014.3801).
